{"source": "patent US20130102829A1", "about": "“METHOD FOR TREATING OSTEOSARCOMA BY BORON NEUTRON CAPTURE THERAPY USING BORIC ACID AS A BORON DRUG” (National Tsing Hua University, priority 2011, published 2013)", "key": {"[1]": {"test_system": "brain tumors", "settings": "1950s; cited from earlier work"}, "[2]": {"settings": "in vivo and in vitro studies; binding to the cis-hydroxy groups; cited from earlier work"}, "[3]": {"settings": "60 mg of ^10B stable isotope per kilogram of human body weight; cited from earlier work"}, "[4]": {"settings": "oral administration of BA to rats or human; cited from earlier work"}, "[5]": {"settings": "in vivo; cited from earlier work"}, "[6]": {"settings": "rat, in vivo", "description": "Before measuring boron concentration of a sample, it needs to undergo microwave digestion first. A sample was initially placed into a Teflon high-pressure digestion vessel, then added with 3 mL of concentrated nitric acid (14N, 65%) and 0.5 mL of hydrogen peroxide (30-35%), and the vessel was sealed before placing the vessel into a microwave digestion system (MLS 1200 Milestone, Italia) for sample decomposition. […] The sample subsequently turned into a clear solution after complete digestion. After diluting the sample with deionized water, an Inductively Coupled Plasma Atomic Emission Spectrometer (ICP-AES, OPTIMA 2000 DV, PerkinElmer Instruments) was used to measure the boron concentration of the sample. For the conditions of the analysis, the temperature of argon plasma was set at 6000-7000 K; the analytical wavelength was set at 249.773 nm, and the liquid uptake rate was set at approximately 2 mL/min; the operating voltage after the formation of plasma was set at 40 V.\n(§1) Male SD rats were the animals used in this osteosarcoma-bearing animal-model. Prior to the experiments, the rats were bred in cage for at least one week at temperature of 22° C. and humidity of 30-70%. An artificial lighting condition (12 h on/12 h off) was maintained in the room. The animal feeds and water were unlimited. The tumor cells used in the experiments were UMR-106 cell strain (Rat osteogenic sarcoma cell line, BCRC No: 60270). Firstly, obtained the UMR-106 tumor cells in exponential growth phase from a culture flask, then centrifuged the UMR-106 cells obtained by subculture method, followed by re-suspending the cells in a media without serum or antibiotics, and dividing the suspension into separate centrifuge microtubes. Placed the Matrigel Matrix (BD Bioscience), a syringe, and the centrifuge microtubes with the cell suspension on ice to be cooled for later use. Before implanting the tumor cells, the UMR-106 cell suspension was mixed with an equal amount of Matrigel first.\nA SD rat was firstly anesthetized by using 2.5% Isoflurane (Halocarbon Laboratories, River Edge, N.J.), followed by shaving and disinfecting a surgical area on the rat for implanting the tumor cells. […] After the implantation, the rats were released back into the cage, and their activities and body conditions were monitored continuously. […]\nUsing the boric acid aqueous solution as a boron drug to do the animal experiments, drugs were administered to the osteosarcoma-bearing rats (six-week old, approximately 200-250 g in body weight) via tail vein injection, and the dose of the boric acid drugs was: 25 mg ^10B/kg BW. The rats' body weights needed to be measured and recorded before the experiments for preparing the boric acid aqueous solution. […]"}, "[7]": {"settings": "rat, in vivo", "from_the_text": "(§2) The experimental animals were divided into three groups; a tumor control group (in which the rats received implantation of tumor cells but not BNCT treatment), a high-dose BNCT group, and a low-dose BNCT group.\nAfter the SD rats were implanted with tumor cells for 11 days, the BNCT treatment and subsequent evaluation of biological effects were commenced. Considering the pharmacokinetics and the changes in boron concentration distribution in the rats after the drug administration, BNCT irradiation was carried out at adequate times after administering boric acid. The rats were anesthetized by gas, then intravenously injected with a boric acid of 25 mg ^10B/kg BW. Fifteen minutes before the neutron irradiation, the rats were injected with Atropine and Zoletil to allow the rats to be anesthetized longer. […]\nBoric acid (25 mg 10B/kg) were injected into the tumor-bearing rats via the tail vein before the irradiation. […] Consequently, the doses received in each of the organs were calculated according to the actual irradiation times and powers, along with simulations of dose rates in the rats' organs from the MCNP application. […]", "remark": "listed apart in the source"}, "[8]": {"test_system": "UMR-106 osteosarcoma", "description": "as §1\nA SD rat was firstly anesthetized by using 2.5% Isoflurane (Halocarbon Laboratories, River Edge, N.J.), followed by shaving and disinfecting a surgical area on the rat for implanting the tumor cells. A 250 μL micro-syringe was fitted with a 25 gauge needle before extracting 200 μL of a mixed solution containing the cells and Matrigel (10×10^6 cells/200 μL). Then the needle was used to penetrate a SD rat's distal femur, which is the femoral condyle; the syringe was rotated in order to penetrate the femur and the spongy bone, and ensured it had protruded out of the femur by touching with a finger. Subsequently, 100 μL of the tumor cell solution was slowly injected into the extra-skeletal muscular tissues, and 100 μL of the solution was injected into the epiphysis and the metaphysis of the femur (at 0.5 cm deep from skin surface) after slowly retracting the needle. After the implantation, the rats were released back into the cage, and their activities and body conditions were monitored continuously. The animals were immunosuppressed by daily administration of cyclosporin A (10 mg/kg, Sandimmun®, Novartis) for total 7 days from the 3rd to the 9th day after UMR-106 cells injection.\nas §2\nAfter the SD rats were implanted with tumor cells for 11 days, the BNCT treatment and subsequent evaluation of biological effects were commenced. Considering the pharmacokinetics and the changes in boron concentration distribution in the rats after the drug administration, BNCT irradiation was carried out at adequate times after administering boric acid. The rats were anesthetized by gas, then intravenously injected with a boric acid of 25 mg ^10B/kg BW. Fifteen minutes before the neutron irradiation, the rats were injected with Atropine and Zoletil to allow the rats to be anesthetized longer. Each of the rats was placed on a fixing frame with its tumor-bearing area close to the beam aperture of the Tsing Hua Open-pool Reactor (THOR), and then neutron irradiation was performed at a specific neutron flux and irradiation time to achieve a certain total neutron fluence. For the reactor power at 1.2 MW, the neutron fluxes at the central beam exit were 1.34×10^8, 1.07×10^9, and 7.66×10^7 n/cm^2/sec, respectively for thermal, epithermal, and fast neutrons. [Liu, Y. H., Tsai, P. E., Liu, H. M., Jiang, S. H., “Characterization of a BNCT beam using neutron activation and indirect neutron radiography,” Radiation Measurements, vol. 45, pp. 1167-1170, 2010.] After the irradiation, the actual irradiation time and reactor power were adjusted by using the on-line neutron monitoring system for THOR."}, "[9]": {"test_system": "Glioblastoma multiforme", "settings": "in vivo; cited from earlier work"}}, "note": "Where two headings read alike, the source gives them in different places."}
{"compound": "O=BOB(O)OB(O)OB=O", "note": "[Borax, sodium borate]", "values": [{"measurement": "outcome of BNCT clinical trials", "setting": "[1]", "result": "unsuccessful"}]}
{"compound": "OB(O)O", "note": "[boric acid]", "values": [{"measurement": "affinity with hydroxyapatite of bone", "setting": "[2]", "result": "strong affinity"}, {"measurement": "adverse effect of an injection dose of boric acid", "setting": "[3]", "result": "no permanent adverse effect"}, {"measurement": "factor by which boron concentrations in bones exceeded those in blood", "setting": "[4]", "result": 4}, {"measurement": "ratio of boron concentrations in blood and soft tissue", "setting": "[5]", "result": "one"}, {"measurement": "boron concentration of extra-skeletal tumor tissues relative to blood", "setting": "[6]; male, Sprague-Dawley, 1 h", "result": "approximately 1.2 times"}, {"measurement": "boron concentration of tumor-bearing distal femurs relative to blood", "setting": "[6]; male, Sprague-Dawley, 1 h", "result": "approximately 2.1 times"}, {"measurement": "boron concentration of tumor-bearing proximal femurs relative to blood", "setting": "[6]; male, Sprague-Dawley, 1 h", "result": "approximately 2.6 times"}, {"measurement": "boron concentrations in the soft tissues compared with blood", "setting": "[6]", "result": "similar"}, {"measurement": "gastro-intestinal reactions, weight loss and other discomfort after the irradiation", "setting": "[7]", "result": "temporary side-effects"}, {"measurement": "histopathological finding of extra-skeletal tumor region", "setting": "[8]; 80th day after BNCT, hematoxylin and eosin stain", "result": "no-viable tumor cells were found"}, {"measurement": "reduction of the sizes of the tumors", "setting": "[8]; 80th day after the irradiation", "result": "~90", "unit": "%"}, {"measurement": "bone healing on radiographs", "setting": "[8]; high dose day 5 to 16, low dose day 5 to 23 after BNCT", "result": "the bone appeared to be healing gradually"}, {"measurement": "relative tumor area", "setting": "[8]; high-dose BNCT group (11.0 Gy), 5th day after BNCT, area divided by area on day of BNCT", "result": 1.1}, {"measurement": "relative tumor area", "setting": "[8]; high-dose BNCT group, 10th day after BNCT", "result": 0.7}, {"measurement": "relative tumor area", "setting": "[8]; high-dose BNCT group, 30th day after BNCT", "result": 0.2}, {"measurement": "relative tumor area", "setting": "[8]; high-dose BNCT group, 60th day after BNCT", "result": 0.2}, {"measurement": "relative tumor area", "setting": "[8]; high-dose BNCT group, 80th day after BNCT", "result": 0.1}, {"measurement": "relative tumor area", "setting": "[8]; low-dose BNCT group (5.8 Gy), 5th day after BNCT", "result": 1.3}, {"measurement": "relative tumor area", "setting": "[8]; low-dose BNCT group, 10th day after BNCT", "result": 1.1}, {"measurement": "relative tumor area", "setting": "[8]; low-dose BNCT group, 30th day after BNCT", "result": 0.3}, {"measurement": "relative tumor area", "setting": "[8]; low-dose BNCT group, 60th day after BNCT", "result": 0.2}, {"measurement": "relative tumor area", "setting": "[8]; low-dose BNCT group, 80th day after BNCT", "result": 0.2}]}
{"compound": "borocaptate sodium [BSH]", "values": [{"measurement": "ratio of boron concentrations between tumors and normal tissues", "setting": "[9]", "result": "does not result in higher ratio"}]}
